Experiment: molar heat capacity at constant pressure
Conditions: 101.33 kPa, Crystal, Vacuum adiabatic calorimetry

O=C([O-])[O-].[Zn+2] [zinc(II) carbonate]
Conditions | molar heat capacity at constant pressure [J/K/mol]
4.397 K | 0.009408
4.399 K | 0.007545
4.757 K | 0.006774
4.774 K | 0.006545
5 K | 0.00773
5.101 K | 0.008038
5.155 K | 0.008164
5.346 K | 0.01084
5.423 K | 0.0117
5.582 K | 0.01132
5.688 K | 0.00813
5.816 K | 0.01409
5.946 K | 0.01317
6.06 K | 0.0142
6.285 K | 0.01382
6.398 K | 0.01585
6.723 K | 0.01601
6.824 K | 0.01961
7.156 K | 0.02326
7.254 K | 0.02331
7.601 K | 0.02683
7.692 K | 0.02785
8.054 K | 0.03096
8.134 K | 0.03204
8.509 K | 0.03516
8.576 K | 0.03774
8.961 K | 0.04103
9.021 K | 0.04305
9.412 K | 0.0479
9.468 K | 0.05013
9.862 K | 0.05547
9.915 K | 0.05829
10 K | 0.05961
10.54 K | 0.07294
10.59 K | 0.07477
11.45 K | 0.09358
11.5 K | 0.09604
12.37 K | 0.1193
12.41 K | 0.1215
13.29 K | 0.1517
13.33 K | 0.153
14.22 K | 0.1928
14.26 K | 0.193
15 K | 0.2346
15.15 K | 0.245
15.18 K | 0.2446
16.08 K | 0.2992
16.12 K | 0.2986
17.02 K | 0.3595
17.05 K | 0.3608
17.97 K | 0.4461
17.99 K | 0.4463
18.91 K | 0.535
18.93 K | 0.5407
19.85 K | 0.6305
19.88 K | 0.6346
20 K | 0.6547
21.27 K | 0.8212
21.29 K | 0.8243
23.14 K | 1.091
23.17 K | 1.096
25 K | 1.427
25.06 K | 1.439
26.95 K | 1.841
28.85 K | 2.31
30 K | 2.613
30.77 K | 2.836
32.69 K | 3.401
34.62 K | 4.038
35 K | 4.162
36.33 K | 4.607
36.56 K | 4.711
38.5 K | 5.446
38.58 K | 5.466
40 K | 6.03
40.52 K | 6.253
42.46 K | 7.047
44.41 K | 7.863
45 K | 8.122
46.36 K | 8.699
48.32 K | 9.572
50 K | 10.39
50.28 K | 10.5
52.24 K | 11.48
54.21 K | 12.47
55 K | 12.79
56.18 K | 13.4
58.15 K | 14.28
60 K | 15.28
60.13 K | 15.34
62.1 K | 16.36
64.08 K | 17.36
65 K | 17.8
66.07 K | 18.36
68.03 K | 19.3
69.94 K | 20.27
70 K | 20.32
72.36 K | 21.49
75 K | 22.79
75.35 K | 22.97
78.35 K | 24.46
79.92 K | 25.19
80 K | 25.24
83.21 K | 26.77
85 K | 27.63
86.23 K | 28.21
89.26 K | 29.61
90 K | 29.96
92.3 K | 31
95 K | 32.21
95.35 K | 32.37
98.41 K | 33.68
100 K | 34.37
101.48 K | 34.99
104.55 K | 36.23
105 K | 36.41
107.64 K | 37.47
110 K | 38.38
110.74 K | 38.65
113.84 K | 39.83
115 K | 40.26
116.95 K | 40.98
120 K | 42.07
120.07 K | 42.09
123.2 K | 43.18
126.34 K | 44.26
129.51 K | 45.31
130 K | 45.47
132.66 K | 46.33
135.83 K | 47.34
139 K | 48.32
140 K | 48.63
142.19 K | 49.32
145.38 K | 50.23
148.58 K | 51.14
150 K | 51.6
151.79 K | 52.15
155.01 K | 53.02
158.25 K | 53.93
160 K | 54.36
161.49 K | 54.75
164.72 K | 55.64
167.92 K | 56.45
170 K | 56.93
171.08 K | 57.17
174.21 K | 57.91
177.3 K | 58.72
180 K | 59.33
180.39 K | 59.37
183.43 K | 60.04
186.44 K | 60.81
189.44 K | 61.49
190 K | 61.57
192.42 K | 62.17
195.37 K | 62.73
198.3 K | 63.33
200 K | 63.68
201.2 K | 63.91
204.09 K | 64.5
206.97 K | 65.04
209.83 K | 65.68
210 K | 65.75
212.67 K | 66.32
215.51 K | 66.8
218.32 K | 67.43
220 K | 67.73
221.12 K | 67.91
223.9 K | 68.47
226.71 K | 68.96
229.46 K | 69.59
230 K | 69.62
232.21 K | 70.19
234.93 K | 70.69
237.65 K | 71.17
240 K | 71.45
240.37 K | 71.48
243.07 K | 71.89
245.76 K | 72.45
248.45 K | 72.82
250 K | 73.2
251.12 K | 73.38
253.79 K | 73.81
256.45 K | 74.15
259.09 K | 74.66
260 K | 74.88
261.74 K | 75.21
264.38 K | 75.75
267.01 K | 76.21
269.71 K | 76.37
270 K | 76.38
272.34 K | 76.67
273.15 K | 76.84
274.96 K | 77.02
277.57 K | 77.36
280 K | 77.83
280.18 K | 77.77
282.78 K | 78.17
285.37 K | 78.56
287.95 K | 78.94
290 K | 79.24
290.53 K | 79.31
293.11 K | 79.67
295.68 K | 80.03
298.15 K | 80.36
298.24 K | 80.38
300 K | 80.6
300.8 K | 80.74
303.36 K | 81.1
305.91 K | 81.42
308.46 K | 81.77
310 K | 81.91
311.15 K | 82.06
313.7 K | 82.4
316.26 K | 82.71
318.8 K | 83
320 K | 83.17
321.35 K | 83.28

Source: the NIST ThermoML archive (doi:10.1016/j.jct.2012.02.028)
